Where “and” joins values, the source holds several entries; their conditions need not be identical. Equal values may be shown once.
Columns and labels:
[1] = target: Nurr1:RXR heterodimer (Homo sapiens, UniProt P19793+P43354); assay: Nurr1 LBD:RXRα LBD heterodimerization assay (HTRF); assay type: biochemical; details: 10 µM, Figure S4
Protocol: (§1) To determine the molecular response of the Nurr1:RXR heterodimer on dual agonist binding, we employed homogenous time-resolved fluorescence resonance energy transfer (HTRF) based assays with labeled Nurr1 and RXR LBD proteins. Tb^3+-cryptate as streptavidin conjugate served as FRET donor and was coupled to biotinylated proteins. sGFP fusion proteins of the receptors of interest were used as FRET acceptors. Ligand effects on dimer formation were determined by titrating the sGFP-labeled dimer partner with a fixed concentration of the Tb^3+-labeled counterpart. […] The same effect was also observable for the natural product 1 (Figure S3).
(§2) Nurr1 dimerization assays (HTRF). Modulation of Nurr1 LBD homodimerization and heterodimerization of the LDBs of Nurr1 and RXRα was investigated by HTRF as reported previously4. Nurr1 LBD or RXRα LBD proteins labeled with sGFP were titrated against a fixed concentration of Tb3+-cryptate as streptavidin conjugate (Tb-SA) (610SATLF, Revvity) coupled to biotinylated Nurr1 LBD protein in the presence of test compounds at 30 µM or absence of compound as a negative control (apo). Assay solutions were prepared in buffer containing 25 mM HEPES pH 7.5, 150 mM KF, 5% (m/v) glycerol, 5 mM DTT, 0.1% (m/v) CHAPS and 1%
(§3) DMSO. The FRET donor complex was formed from biotinylated Nurr1 LBD (final concentration 0.188 nM) and Tb-SA (0.375 nM) and was kept constant. For the homodimerization assay, the FRET acceptor consisted of sGFP-Nurr1 LBD, which was titrated from 0.5 µM, while free sGFP was added to keep the total GFP content stable at 0.5 µM. […] Samples were equilibrated at room temperature for 2 h and fluorescence intensities (FI) after excitation at 340 nm were recorded at 520 nm for sGFP acceptor fluorescence and at 620 for Tb-SA donor fluorescence on a SPARK plate reader (Tecan Group Ltd.). […]
(§4) Evaluation of Nurr1-regulated gene expression. […] RNA concentration and purity were assessed using a NanoDrop One UV-vis spectrophotometer (Thermo Fisher Scientific) at 260/280 nm. […]

[2] = tested on: RXR; assay: Gal4 hybrid reporter gene assay, RXR (subtype not stated); assay type: cell-based; details: for activity on RXR (fold reporter activation vs. DMSO ctrl): 30 and 100 µM, Figure S1, mean±SD, n=3; for RXR activation: amide analogues
Protocol: (§5) modified Eagle’s medium (DMEM), high glucose supplemented with 10% fetal calf serum (FCS), sodium pyruvate (1 mM), penicillin (100 U/mL), and streptomycin (100 μg/mL) at 37 °C and 5% CO2 and seeded in 96-well plates (3×10^4 cells/well). After 24 h, the medium was changed to Opti-MEM without supplements, and the cells were transiently transfected using Lipofectamine LTX reagent (Invitrogen) according to the manufacturer’s protocol. Five hours after transfection, the cells were incubated with the test compounds in Opti-MEM supplemented with penicillin (100 U/mL), streptomycin (100 μg/mL), and 0.1% DMSO for 15 h before luciferase activity was measured using the Dual -Glo Luciferase Assay System (Promega) according to the manufacturer’s protocol on a Tecan Spark l uminometer (Tecan Deutschland GmbH, Germany). Firefly luminescence was divided by Renilla luminescence and multiplied by 1000, resulting in relative light units (RLU) to normalize for transfection efficiency and cell growth. Fold activation was obtained by dividing the mean RLU of a sample by the mean RLU of the untreated control. All samples were tested in at least three biologically independent experiments in duplicates. For dose –response curve fitting and calculation of EC50 values, the equation “[Agonist] vs. response – Variable slope (four parameters)” was used in GraphPad Prism (version 5.04, GraphPad Software, La Jolla, CA, USA). […] (10 μM, NR4A) and bexarotene (1 µM, NR2B) served as the positive control. […]
(§6) 150 μM in the same buffer containing 2-4% DMSO) in 21–26 injections (1 × 1 μL and 20 × 4 to 25 × 4 μL) with an injection interval of 120 s. As control experiments, the test compounds were titrated to the buffer, and the buffer was titrated to the protein under otherwise identical conditions. The heat rates of the compound-Nurr1 LBD titrations were analyzed using NanoAnalyze software (TA Instruments, New Castle, DE) with an independent binding model.

[3] = target: T1, Nurr1 (Homo sapiens, UniProt P43354); assay: Gal4-hybrid reporter gene assay, Nurr1; assay type: cell-based; details: for activity on Nurr1 (fold reporter activation vs. DMSO ctrl): 30 and 100 µM, Figure S1, mean±SD, n=3; for remain. Nurr1 activity: 30 μM; for agonist activity on Gal4-Nurr1: amide analogues
T1 construct: pFA-CMV-hNurr1-LBD; expressed in transfected cells; host or cells: HEK293T
Protocol: as §5, §6

[4] = target: T2, RXRα (Homo sapiens, UniProt P19793); assay: Gal4-hybrid reporter gene assay, RXRα; assay type: cell-based; details: for RXRα activity at single concentration: 30 μM
T2 construct: pFA-CMV-hRXRα-LBD; expressed in transfected cells; host or cells: HEK293T
T2 sequence (P19793 227-458 limits assumed): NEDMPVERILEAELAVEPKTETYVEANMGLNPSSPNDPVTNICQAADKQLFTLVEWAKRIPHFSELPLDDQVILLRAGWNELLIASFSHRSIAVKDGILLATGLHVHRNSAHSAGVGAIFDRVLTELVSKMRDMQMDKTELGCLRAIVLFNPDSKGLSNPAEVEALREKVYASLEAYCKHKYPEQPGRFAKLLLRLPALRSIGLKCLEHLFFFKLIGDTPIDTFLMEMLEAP
Protocol: as §5, §6

[5] = target: T3, RXRγ (Homo sapiens, UniProt P48443); assay: Gal4-hybrid reporter gene assay, RXRγ; assay type: cell-based; details: for RXRγ activity at single concentration: 30 μM
T3 construct: pFA-CMV-hRXRγ-LBD; expressed in transfected cells; host or cells: HEK293T
T3 sequence (P48443 231-459 limits assumed): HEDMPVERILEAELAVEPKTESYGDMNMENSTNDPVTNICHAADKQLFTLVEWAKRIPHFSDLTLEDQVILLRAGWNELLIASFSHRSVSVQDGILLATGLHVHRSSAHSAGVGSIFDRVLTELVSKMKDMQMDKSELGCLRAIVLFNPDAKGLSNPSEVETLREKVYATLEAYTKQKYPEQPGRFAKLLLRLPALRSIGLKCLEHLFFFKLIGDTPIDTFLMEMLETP
Protocol: as §5, §6

[6] = target: T4, RXRβ (Homo sapiens, UniProt P28702); assay: Gal4-hybrid reporter gene assay, RXRβ; assay type: cell-based; details: for RXRβ activity at single concentration: 30 μM
T4 construct: CMV-hRXRβ-LBD; expressed in transfected cells; host or cells: HEK293T
T4 sequence (P28702 296-529 limits assumed): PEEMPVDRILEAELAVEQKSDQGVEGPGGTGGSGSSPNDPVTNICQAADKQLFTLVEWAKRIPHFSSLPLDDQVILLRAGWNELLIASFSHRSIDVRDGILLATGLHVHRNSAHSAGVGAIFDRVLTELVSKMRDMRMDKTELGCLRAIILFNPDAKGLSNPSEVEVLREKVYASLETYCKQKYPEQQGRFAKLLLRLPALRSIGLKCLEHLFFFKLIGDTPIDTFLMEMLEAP
Protocol: as §5, §6

[7] = target: T5, Nurr1 homodimer (Homo sapiens, UniProt P43354); assay: Nurr1 LBD homodimerization assay (HTRF); assay type: biochemical; details: 30 μM, Tb3+-cryptate and sGFP labeled Nurr1 LBD
T5 construct: Tb^3+-cryptate labeled and sGFP-labeled Nurr1 LBD proteins; FRET acceptor consisted of sGFP-Nurr1 LBD
Protocol: as §1, §2, §3, §4

[8] = target: T6, RXRα LBD (Homo sapiens, UniProt P19793); assay: Isothermal titration calorimetry, recombinant RXRα LBD; assay type: binding; details: ITC
T6 construct: made in house
T6 sequence (P19793 227-458 limits assumed): T2 sequence (P19793 227-458 limits assumed)
Protocol: (§7) Isothermal titration calorimetry. ITC experiments for ligand binding to Nurr1 and RXR were conducted on an Affinity ITC instrument (TA Instruments, New Castle, DE) at 25 °C with a stirring rate of 75 rpm using recombinantly expressed ligand binding domain proteins as described previously5,6. The respective LBD protein (12–25 μM) in buffer (20 mM Tris pH 7.5, 100 mM NaCl, 5% glycerol) containing 2-4% DMSO was titrated with the test compounds (100-150 μM in the same buffer containing 2-4% DMSO) in 21–26 injections (1 × 1 μL and 20 × 4 to 25 × 4 μL) with an injection interval of 120 s. As control experiments, the test compounds were titrated to the buffer, and the buffer was titrated to the protein under otherwise identical conditions. The heat rates of the compound-Nurr1 LBD titrations were analyzed using NanoAnalyze software (TA Instruments, New Castle, DE) with an independent binding model.

[9] = target: T7, Nurr1 LBD (Homo sapiens, UniProt P43354); assay: Isothermal titration calorimetry, recombinant Nurr1 LBD; assay type: binding; details: ITC
T7 construct: made in house
Protocol: as §7

[10] = Gal4-hybrid reporter gene assay
[11] = Gal4-hybrid reporter gene assay, mean±S.E.M., n≥3

T1 sequence (P43354 360-595 limits assumed): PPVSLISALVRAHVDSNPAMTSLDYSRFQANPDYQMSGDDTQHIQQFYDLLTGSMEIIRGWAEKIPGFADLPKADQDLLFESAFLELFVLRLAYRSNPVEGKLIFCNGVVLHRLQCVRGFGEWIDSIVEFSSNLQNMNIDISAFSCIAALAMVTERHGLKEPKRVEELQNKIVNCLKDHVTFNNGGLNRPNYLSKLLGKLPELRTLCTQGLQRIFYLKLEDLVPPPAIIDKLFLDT
T7 sequence (P43354 360-595 limits assumed): as above
T5 sequence (P43354 360-595 limits assumed): as above
Sequence of Nurr1:RXR heterodimer (P43354 360-595 limits assumed, one chain of several): as the sequence (P43354 360-595 limits assumed) above

SMILES	activity on RXR (fold reporter activation vs. DMSO ctrl) [2]	activity on Nurr1 (fold reporter activation vs. DMSO ctrl) [3]	RXR activation [2]	RXRα activity at single concentration [4]	remain. Nurr1 activity [3, 10]	agonist activity on Gal4-Nurr1 [3]	RXRγ activity at single concentration [5]	Kd(RXRα LBD) [8]	Kd(Nurr1 LBD) [9]	RXRβ activity at single concentration [6]	other results
CC1(C)CCC(C)(C)c2cc(C3(c4ccc(C(=O)O)cc4)OCCO3)ccc21 [SR11237, reference compound]	–	–	–	–	–	–	–	–	–	–	Nurr1:RXR heterodimer formation (dimer strength) [1]: Diminished dimer strength
CC(=O)O[C@@H]1CC(C)=C2[C@H]1[C@H](C)CC[C@H]2/C=C(\C)C(=O)O [VA-OAc, acetoxy-valerenic acid, reference compound]	no activity	no activity	–	–	–	–	–	–	–	–	–
CC1=C2[C@@H]([C@H](C)CC[C@H]2/C=C(\C)C(=O)O)[C@H](O)C1 [VA-OH, hydroxy-valerenic acid, reference compound]	no activity	no activity	–	–	–	–	–	–	–	–	–
CC1=C2[C@H](/C=C(\C)C(=O)O)CC[C@@H](C)[C@H]2CC1 [compound 1, valerenic acid]	–	–	–	–	–	–	–	–	–	–	max. act. (RXR) α [4, 10]: 9±1 fold; EC50 [4, 11]: 27 µM; max. act. (Nurr1) ([3]; Gal4-hybrid reporter gene assay, max. fold activation): 1.3 fold and 1.3±0.1 fold; EC50 [3, 11]: 3 ± 1 µM; max. act. (RXR) γ [5, 10]: 4±1 fold; EC50 [5, 11]: 43 µM; max. act. (RXR) β [6, 10]: 69±1 fold; EC50 [6, 11]: 5.2 µM; Nurr1 homodimer formation [7]: same effect
Cc1c2c(n(-c3ccc(CC(N)=O)cc3)c1C)CCC(F)(F)C2 [compound 4]	–	–	failed to activate RXR	α: inactive (30 μM) β: inactive (30 μM) γ: inactive (30 μM)	86±9% remain. Nurr1 activity (30 μM)	lost agonist activity	α: inactive (30 μM) β: inactive (30 μM) γ: inactive (30 μM)	no binding detected	no binding detected	α: inactive (30 μM) β: inactive (30 μM) γ: inactive (30 μM)	–
Cc1c(C)n(-c2ccc(CC(N)=O)cc2)c2ccc(F)cc12 [compound 5]	–	–	failed to activate RXR	α: inactive (30 μM) β: inactive (30 μM) γ: inactive (30 μM)	85±7% remain. Nurr1 activity (30 μM)	lost agonist activity	α: inactive (30 μM) β: inactive (30 μM) γ: inactive (30 μM)	no binding detected	no binding detected	α: inactive (30 μM) β: inactive (30 μM) γ: inactive (30 μM)	–

— publication PMC7618597, “Dual Nurr1/RXR agonism of valerenic acid and synthetic mimetics enables dimer-selective Nurr1 modulation” (ACS medicinal chemistry letters, 2025)
